The results in this text go back to ChEMBL document CHEMBL1136804, “Adenosine kinase inhibitors. 3. Synthesis, SAR, and antiinflammatory activity of a series of l-lyxofuranosyl nucleosides” (J Med Chem, 2003).

The test system of assay [1] is Rattus norvegicus. Put plainly: Anti-inflammatory activity at a dose of 10 mg/kg, perorally in rat Carrageenan paw edema model. Conditions: route oral. The class given is functional. Background: The carrageenan paw model is a standard test of acute inflammation.
Assay [2] addresses Adenosine kinase (Homo sapiens, UniProt P55263). Put plainly: Inhibitory activity against human recombinant adenosine kinase.

Sequence of Adenosine kinase (P55263 whole entry): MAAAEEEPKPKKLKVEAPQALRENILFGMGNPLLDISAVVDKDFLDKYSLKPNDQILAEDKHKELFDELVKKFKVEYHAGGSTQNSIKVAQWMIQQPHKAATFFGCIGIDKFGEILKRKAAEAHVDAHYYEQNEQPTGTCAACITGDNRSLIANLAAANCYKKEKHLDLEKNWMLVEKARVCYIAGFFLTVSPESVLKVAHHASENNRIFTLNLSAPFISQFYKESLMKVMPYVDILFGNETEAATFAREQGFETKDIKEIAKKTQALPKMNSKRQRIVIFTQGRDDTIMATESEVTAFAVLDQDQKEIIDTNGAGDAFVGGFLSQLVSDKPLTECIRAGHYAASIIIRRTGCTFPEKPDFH

With `OC[C@@H]1O[C@@H](n2nc(-c3ccccc3)c3c(Nc4ccccc4)ncnc32)[C@H](O)[C@@H]1O` (single isomer, unassigned), the inhibition in vivo (commonly the drop in the measured response relative to a control, in per cent) at 10 mg/kg in assay [1] came to 14.2%. Besides, the IC50 (usually the midpoint of a concentration-inhibition curve) in assay [2] was 2.8 nM.
On to `Nc1ncnc2c1c(Br)cn2[C@@H]1O[C@@H](CO)[C@@H](O)[C@H]1O` (single isomer, unassigned), for which the IC50 in assay [2] turned out to be 280 nM.
With `COC[C@@H]1O[C@@H](n2cc(I)c3c(N)ncnc32)[C@H](O)[C@@H]1O` (single isomer, unassigned), in assay [2], the IC50 stood at 2000 nM.
Consider `Nc1ncnc2c1c(Br)nn2[C@@H]1O[C@@H](CO)[C@@H](O)[C@H]1O` (single isomer, unassigned), for which, in assay [2], the IC50 was found to be 10000 nM.
`NC[C@@H]1O[C@@H](n2cc(I)c3c(N)ncnc32)[C@H](O)[C@@H]1O` (single isomer, unassigned): in assay [2], the concentration for half-maximal inhibition (IC50) worked out at 16 nM.
Take `Nc1ncnc2c1ncn2[C@@H]1O[C@@H](CO)[C@@H](O)[C@H]1O` (single isomer, unassigned): in assay [2], the half-maximal inhibitory concentration (IC50) was 1000 nM.
Same read-out and setting: then `NC[C@@H]1O[C@@H](n2nc(Br)c3c(N)ncnc32)[C@H](O)[C@@H]1O` (single isomer, unassigned), with 170 nM.
Consider `OC[C@@H]1O[C@@H](n2cc(-c3ccccc3)c3c(Nc4ccc(F)cc4)ncnc32)[C@H](O)[C@@H]1O` (single isomer, unassigned), for which, in assay [1], 10 mg/kg produced 53.5% inhibition in vivo. Further, the IC50 in assay [2] is 1.5 nM.
In the case of `NC[C@H]1O[C@@H](n2nc(Br)c3c(N)ncnc32)[C@H](O)[C@@H]1O` (single isomer, unassigned), in assay [2], the half-maximal inhibitory concentration (IC50) came out at 4 nM.
`NC[C@@H]1O[C@@H](n2cnc3c(N)ncnc32)[C@H](O)[C@@H]1O` (single isomer, unassigned): in assay [2], the IC50 came out at 10000 nM.
On to `NC[C@@H]1O[C@@H](n2nc(-c3ccccc3)c3c(Nc4ccccc4)ncnc32)[C@H](O)[C@@H]1O` (single isomer, unassigned), for which the IC50 in assay [2] was 42 nM.
`Nc1ncnc2c1c(I)cn2[C@@H]1O[C@@H](CO)[C@@H](O)[C@H]1O` (single isomer, unassigned) returned an inhibition in vivo at 10 mg/kg in assay [1] of 43.8%.
Consider `COC[C@@H]1O[C@@H](n2cc(-c3ccccc3)c3c(Nc4ccccc4)ncnc32)[C@H](O)[C@@H]1O` (single isomer, unassigned), for which, in assay [1], the inhibition in vivo at 10 mg/kg is 86%. The IC50 in assay [2] was determined as 15 nM.
Regarding `C[C@H]1O[C@@H](n2cc(-c3ccccc3)c3c(Nc4ccc(F)cc4)ncnc32)[C@H](O)[C@@H]1O` (single isomer, unassigned), the half-maximal inhibitory concentration (IC50) in assay [2] turned out to be 5 nM.
